According to US20240058268A1, “METHODS OF TREATING SKIN DISORDERS” (priority 2021, published 2024):

Test system: cell types in skin biopsies (macrophage subsets, B cells, melanocytes, venular cells)
Experiment: Cell type scoring (cell-type gene signature expression scores in biopsies)
Type: in vivo, human
From the text: Single-Cell Analysis and Cell Marker Definition: Single-cell RNAseq data from Hughes et al. was used to determine the major cell types present in skin biopsies and the associated cell markers. Acne and normal samples from GSE150672 were downloaded and analyzed using the Seurat package. Data were normalized, scaled, and log-transformed. The most variable genes were selected based on their expression and dispersion. To reduce dimensionality, principal component analysis (PCA) was applied. The first eight principal components were used to cluster the cells using the graph-based approach FindClusters function in Seurat, with a resolution parameter of 0.4. Graphical representation of cell clusters was achieved using UMAP. A combination of known markers and differentially expressed genes was used to characterize cell clusters. Major cell type markers retained for scoring analysis included: B cells: MS4A1, CD79A; Fibroblasts: DCN, COL6A2, APOD, CFD, IGFBP5, COL1A2, COL1A1, COL3A1; Keratinocytes: KRT5, KRT1, KRT14, KRT15, S100A2, KRT6A, HOPX, KRT10, DSP; Langerhans cells: CD207; Mast cells: CPA3, IL1RL1, CTSG, TPSAB1, GATA2; Melanocytes: MLANA, MITF, PMEL, DCT; Myeloid cells: CD68, CTSS; Schwann cells: SCN7A; T cells: CD3D, TRBC2, IL7R, PTPRC, CXCR4; Venular cells: SELE, CD93, TM4SF1, A2M, RCAN1; Vascular smooth muscle cells (VSMC): TAGLN, RGS5, MYH11, ACTA2, MYL9.
Macrophage Gene Signatures: Gene markers specific to each class of macrophage were derived from the literature. For M0, M1 and M2 macrophages, the markers described in Newman et al. (Robust enumeration of cell subsets from tissue expression profiles, Nat Methods, 12:453-7, 2015) were used. For SPP1 activated macrophages, the markers from Morse et al. (Proliferating SPP1/MERTK-expressing macrophages in idiopathic pulmonary fibrosis. Eur Respir J., 54:1802441) were used. Final markers were as listed. M0 macrophage: ACP5, BHLHE41, C5AR1, CCDC102B, CCL22, CCL7, COL8A2, CSF1, CXCL3, CXCL5, CYP27A1, DCSTAMP, GPC4, HK3, IGSF6, MARCO, MMP9, NCF2, PLA2G7, PPBP, QPCT, SLAMF8, SLC12A8, TNFSF14, VNN1. M1 macrophage: ACHE, APOBEC3A, APOL3, APOL6, ARRB1, CCL19, CCL5, CCR7, CD38, CD40, CHI3L1, CXCL10, CXCL11, CXCL13, CXCL9, CYP27B1, DHX58, HESX1, IDO1, IFI44L, IL2RA, KIAA0754, KYNU, LAG3, LAMP3, LILRA3, LILRB2, NOD2, PLA1A, PTGIR, RASSF4, RSAD2, SLAMFI, SLC2A6, SOCS1, TLR7, TNFAIP6, TNIP3, TRPM4. M2 macrophage: AIF1, ALOX15, CCL13, CCL14, CCL23, CD209, CD4, CFP, CLEC10A, CLEC4A, CRYBB1, FES, FRMD4A, FZD2, GSTT1, HRH1, HTR2B, MS4A6A, NME8, NPL, P2RY13, PDCD1LG2, RENBP, WNT5B. SPP1 macrophage: MERTK, CD14, SPP1, CD68, LYZ.
Cell Type Scoring: Each cell type gene signature was used to define a cell type average gene expression in each of our clinical study samples, calculated as the average of the log 2 expression values of these markers. Boxplots were used to visualize the distribution of cell type gene expression scores between clinical groups. Statistical significance was assessed using Wilcoxon rank sum test. Graphs were generated using the ggpubr data visualization library.

CC(C)(C)c1cc(-c2cc(-c3ccc(C(=O)O)cc3)ccc2OCCO)ccc1N1CCCC1 [Trifarotene, 3″-tert-Butyl-4′-(2-hydroxy-ethoxy)-4″-pyrrolidin-1-yl-[1,1′,3′,1″ ]terphenyl-4-carboxylic acid] was tested, and the venular cells (following trifarotene treatment) was “trend toward a decrease”, the “M0, M1 and M2 macrophages” value (spontaneously resolved vs trifarotene treated biopsies) was “not significantly different” and the increase in melanocytes (trifarotene treated vs spontaneously resolved acne lesions) was “greater in the trifarotene treated samples”. The B cell frequencies (trifarotene treatment vs. spontaneous resolution) was “greater impact in reducing B cell frequencies” and the “frequencies of SPP1+ macrophages” value (trifarotene treatment vs. spontaneously resolved acne papules, P=0.040) was “significantly reduced”.
